Source: PubChem BioAssay AID179 (DTP/NCI, 2004)
pEC50, pIC50: −log10 of the molar value. Several values for one entry are separate records, joined by “and”; a condition that tells them apart may be missing. Equal values may be shown once. Activity calls are given as the source filed them.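 How the source made its calls: active means compounds giving half or more protection of infected cells from virus-caused growth loss, again on retest; inactive means the rest.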 Where a SMILES comes first, the peptide text is derived from it.

Tested on: CEM cells HIV-1 protection, formazan growth assay
Experiment: NCI AIDS Antiviral Assay
Conditions: for pIC50: measured here: growth of uninfected CEM cells
Method in brief: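 CEM (human) cells, HIV-1 infected vs uninfected, 5-point dosing, formazan growth read-out. Retest threshold 50% protection.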

Question: With `CC(=O)[O-].Cc1ccnc(NS(=O)(=O)c2ccc(N=Cc3ccccc3[O-])cc2)n1.Cc1ccnc(NS(=O)(=O)c2ccc(N=Cc3ccccc3[O-])cc2)n1.[Co+2].[H+]` as the compound, how does the pEC50 read?
Answer: < 3.70

Question: What about the pIC50 of the same compound?
Answer: 4.98

Question: `S=c1n(-c2ccc(Cl)cc2)c2nc3ccccc3nc(/c2=N\Nc2cc(Cl)ccc2Cl)n1-c1ccccn1` was tested. Which pEC50 did it give?
Answer: < 3.70

Question: And the pIC50?
Answer: 4.74

Question: For `O=C(c1ccccc1)c1cn(/N=C\c2ccccc2)c(=O)nc1-c1ccccc1`, which outcome is on record?
Answer: inactive

Question: `Cc1cc(C)nc(NS(=O)(=O)c2ccc(NC(=O)c3cccc4c(=O)c5ccccc5[nH]c34)cc2)n1` was tested. Which outcome did it give?
Answer: inactive

Question: `Fc1nc(-c2c3ccccc3c3sc4ccccc4n23)nc(N2CCOCCOCCOCCOCC2)n1` was tested. Which pEC50 did it give?
Answer: < 3.70

Question: What about the pIC50 of the same compound?
Answer: 4.29

Question: With `CC[n+]1[b-](C(C)(C)C)n(/N=C/C(C)(C)C)[b-](C(C)(C)C)[n+]1CC` as the compound, how does the pEC50 read?
Answer: < 3.70

Question: What about the pIC50 of the same compound?
Answer: < 3.70

Question: With `CSC1=Nc2cc3c(cc2C(=O)N2CC(OC(C)=O)CC12)OCO3` (stereo not drawn) as the compound, how does the pEC50 read?
Answer: < 3.70

Question: What about the pIC50 of the same compound?
Answer: < 3.70

Question: How did the pEC50 turn out when `CCCCCCCCCCCCCCCCCCNC(=S)/N=C/c1c(O)c2ccccc2[nH]c1=O` was run?
Answer: < 3.70

Question: And the pIC50?
Answer: 4.35

Question: How did the pEC50 turn out when `Clc1ccc2c(c1)[nH]c1c2nc2ccccn21` was run?
Answer: < 4.52

Question: And the pIC50?
Answer: 4.53 and < 4.59

Question: `Cc1ccccc1Nc1nc2ccccc2nc1NS(=O)(=O)c1ccccc1` was tested. Which pEC50 did it give?
Answer: < 3.70

Question: And the pIC50?
Answer: < 3.70

Question: How did the pEC50 turn out when `NC(N)=NCCN1CCCCCc2ccccc21` was run?
Answer: < 3.70

Question: And the pIC50?
Answer: 4.68

Question: Which results are given for `C(=N\NC1=NCCCCN1)/c1ccc2ccccc2c1`?
Answer: pEC50: < 3.70; pIC50: 4.48

Question: How did the pEC50 turn out when `CCCc1cc(=O)oc2c3c(cc(OCC)c12)O[C@H](C)[C@@H](C)C3=O` was run?
Answer: < 3.70

Question: What about the pIC50 of the same compound?
Answer: 5.08

Question: With `Cc1ccc(N=NN(C)C)cc1NC(=O)NCC(=O)OC(C)(C)C` as the compound, how does the pEC50 read?
Answer: < 3.70

Question: What about the pIC50 of the same compound?
Answer: 3.97

Question: For `Clc1ccc(C=NC23CC4CC(CC(C4)C2)C3)c(Cl)c1`, which outcome is on record?
Answer: inactive

Question: Which results are given for `CC(C)(C)c1cc(-c2cc(C(C)(C)C)[nH]n2)n[nH]1`?
Answer: pEC50: < 3.70; pIC50: < 3.70

Question: `Cc1cc(=O)oc2c1cc1ccc3cccc4ccc2c1c34` was tested. Which outcome did it give?
Answer: inactive

Question: What does the source list for `O=C1CCc2c(Cl)sc(Cl)c21`?
Answer: pEC50: < 3.48; pIC50: 3.82

Question: `N#CC1(O)CCCCCCCCCCC1` was tested. Which pEC50 did it give?
Answer: < 3.70

Question: What about the pIC50 of the same compound?
Answer: < 3.70

Question: Which results are given for `COc1cc([C@@H]2CC3(C)OC(=O)C2CC3C)cc(OC)c1OC` (stereo partly drawn)?
Answer: pEC50: < 3.25; pIC50: < 3.25

Question: How did the pEC50 turn out when `COc1c(OC)c(OC)c2c(=O)c(OC)c(-c3ccc4c(c3)OCO4)oc2c1OC` was run?
Answer: < 3.70

Question: What about the pIC50 of the same compound?
Answer: < 3.70

Question: How did the pEC50 turn out when `COC(=O)NC1(NC(=O)OC)NC(=O)c2ccccc2N1` was run?
Answer: < 3.70

Question: What about the pIC50 of the same compound?
Answer: < 3.70

Question: `CCC(C)C(NC(=O)C(CCCN=C(N)N)NC(=O)C(CC(=O)O)NC(=O)C(Cc1ccc(O)cc1)NC(=O)C(N)CC(C)C)C(=O)NC(C(=O)NC(CC(C)C)C(=O)NC(CCCN=C(N)N)C(=O)NC(Cc1ccc(O)cc1)C(=O)O)C(C)CC` (stereo not drawn) (H-LYDRIILRY-OH; configuration not given here) was tested. Which pEC50 did it give?
Answer: < 4.99

Question: And the pIC50?
Answer: < 4.99

Question: Which results are given for `CCCCCCCCCCCCSC(=S)c1c(C)[nH]n(CCCCCCCCCCCC)c1=O`?
Answer: pEC50: < 4.29; pIC50: < 4.29

Question: Which results are given for `CCc1n[nH]c(=O)n1N1C(=O)C2CCCCC2C1=O` (stereo not drawn)?
Answer: pEC50: < 3.70; pIC50: < 3.70

Question: For `N#CC(C(=O)C(=O)C(C#N)c1ccc(Br)cc1)c1ccc(Br)cc1` (stereo not drawn), which outcome is on record?
Answer: inactive

Question: What does the source list for `Oc1cc(Cc2ccccc2)c(Cc2ccccc2)cc1O`?
Answer: pEC50: < 3.70; pIC50: 4.46

Question: Which results are given for `CN(C)CCNC(=O)c1nc([N+](=O)[O-])cn1C`?
Answer: pEC50: < 3.70; pIC50: < 3.70

Question: What does the source list for `Cc1ccc(S(=O)(=O)Nn2c3c(cc(C#N)c2=O)CCCCC3)cc1`?
Answer: pEC50: < 3.70; pIC50: < 3.70

Question: How did the pEC50 turn out when `CN1CCN(CCCN2c3ccccc3Sc3ccc(Cl)cc32)CC1` was run?
Answer: < 3.70

Question: What about the pIC50 of the same compound?
Answer: 5.43

Question: What does the source list for `COc1onc(C)c1CC(=O)O`?
Answer: pEC50: < 3.70; pIC50: < 3.70

Question: With `[N-]=[N+]=CC(=O)c1ccccc1C#CCCc1ccccc1` as the compound, how does the pEC50 read?
Answer: 4.33

Question: What about the pIC50 of the same compound?
Answer: 4.17

Question: Which results are given for `c1ccc(C2OCCO2)c(OCCOc2cc(OCCOc3ccccc3C3OCCO3)c(OCCOc3ccccc3C3OCCO3)cc2OCCOc2ccccc2C2OCCO2)c1`?
Answer: pEC50: < 5.10; pIC50: < 5.10

Question: `O=C(/C=C1/NC(=O)CS1)Nc1ccccc1` was tested. Which pEC50 did it give?
Answer: < 3.42

Question: What about the pIC50 of the same compound?
Answer: 3.74

Question: Which results are given for `O=c1cc(-c2c(O)cc(O)cc2O)oc2cc(O)cc(O)c12`?
Answer: pEC50: < 3.70; pIC50: < 3.70

Question: With `O=c1[nH]nc(-c2ccccc2)n1/N=C\CC/C=N\n1c(-c2ccccc2)n[nH]c1=O` as the compound, how does the outcome read?
Answer: inactive

Question: `CC(C)[C@@H]1CC[C@]2(COC(=O)CC3(CC(=O)O)CCCC3)CC[C@]3(C)[C@H](CC[C@@H]4[C@@]5(C)CC[C@H](OC(=O)CC6(CC(=O)O)CCCC6)C(C)(C)[C@@H]5CC[C@]43C)[C@@H]12` was tested. Which pEC50 did it give?
Answer: < 3.70

Question: And the pIC50?
Answer: 5.19

Question: With `C=C[C@H](C)[C@H](O)c1c(O)c2c(c3c(CCC)cc(=O)oc13)OC(C)(C)C=C2` as the compound, how does the pEC50 read?
Answer: < 3.70

Question: What about the pIC50 of the same compound?
Answer: 4.31

Question: With `CC[As](CC)SCC1OC(OC(C)=O)C(OC(C)=O)C(OC(C)=O)C1OC(C)=O` (stereo not drawn) as the compound, how does the pEC50 read?
Answer: < 3.72

Question: What about the pIC50 of the same compound?
Answer: 5.34

Question: `C=CCOc1cc2c(cc1C(C)c1ccc(OC)cc1)OCO2` (stereo not drawn) was tested. Which pEC50 did it give?
Answer: < 4.49

Question: And the pIC50?
Answer: 6.15

Question: With `Cc1cn(C(C)OCCO)c(=O)[nH]c1=O` (stereo not drawn) as the compound, how does the pEC50 read?
Answer: < 3.70

Question: And the pIC50?
Answer: < 3.70

Question: What does the source list for `C/C(=N/NS(=O)(=O)c1ccc(N)cc1)c1ccccc1O`?
Answer: pEC50: < 3.93; pIC50: < 3.93
